Where two headings read alike, the source gives them in different places.
What was measured:
[1] = biological target: human Werner helicase (WRN, amino acids 517-1235 with L1074F point mutation) (Homo sapiens (Human), UniProt Q14191, L1074F); assay: WRN (BV08) ADP-Glo assay; assay type: biochemical; conditions: human WRN (aa 517-1235, L1074F), read-out: ADP-Glo_hWRN_IC50
Procedure, shortened: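 ADP-Glo luminescence read after 60 min, 25 °C reaction of 0.15 nM WRN (517-1235, L1074F, Sf9-expressed, tag removed) with 0.1 nM DNA duplex and 5 μM ATP, following 15 min compound preincubation; 20 mM Bicine pH 7.5, 1% DMSO. IC50 from 3- or 4-parameter fit of % inhibition.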

[2] = system: p21 induction in HCT 116 cells; assay: p21 induction in cells (In-Cell Western, p21/GAPDH ratio); assay type: cell-based; conditions: 24 h compound incubation, read-out: p21_EC50
Procedure, shortened: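 EC50 values come from nonlinear fits of percent activation, defined by the 800/700 nm p21-to-GAPDH ratio scaled between DMSO (low) and internal WRN inhibitor (high) controls. In-Cell Western read after 24 h compound exposure of HCT 116 cells at 37° C. Duplicate 11-point series, 2-fold steps, usually starting at 10 μM.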

human Werner helicase (WRN, amino acids 517-1235 with L1074F point mutation), sequence (Q14191 other isoform, or with tags, fused parts or gaps L1074F (already in the parent)): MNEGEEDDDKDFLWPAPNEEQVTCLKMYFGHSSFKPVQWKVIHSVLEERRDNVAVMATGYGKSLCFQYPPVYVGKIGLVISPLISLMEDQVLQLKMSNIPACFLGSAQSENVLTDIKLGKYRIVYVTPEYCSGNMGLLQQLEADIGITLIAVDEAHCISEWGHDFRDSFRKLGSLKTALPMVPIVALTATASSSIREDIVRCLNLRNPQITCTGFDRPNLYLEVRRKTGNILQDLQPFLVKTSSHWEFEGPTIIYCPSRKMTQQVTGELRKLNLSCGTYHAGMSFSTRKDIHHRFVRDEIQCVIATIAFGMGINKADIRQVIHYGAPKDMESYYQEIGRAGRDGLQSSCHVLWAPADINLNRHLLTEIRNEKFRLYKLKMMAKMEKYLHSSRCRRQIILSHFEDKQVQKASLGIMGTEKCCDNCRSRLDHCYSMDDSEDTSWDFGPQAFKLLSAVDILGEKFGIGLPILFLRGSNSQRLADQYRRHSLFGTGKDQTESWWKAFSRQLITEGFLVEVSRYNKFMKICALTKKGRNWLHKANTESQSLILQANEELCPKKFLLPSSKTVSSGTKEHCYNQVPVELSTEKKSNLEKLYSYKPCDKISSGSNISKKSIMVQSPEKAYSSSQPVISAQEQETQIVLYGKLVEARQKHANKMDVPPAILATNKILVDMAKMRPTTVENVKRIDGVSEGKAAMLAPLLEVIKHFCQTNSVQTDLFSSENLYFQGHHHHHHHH

Compound	IC50 [1]	EC50 ([2]; Homo sapiens)	EC50 [2]
CCc1c(N2CCN(C(=O)c3cccc4c3OCC4)[C@H]3CC[C@@H]32)c(=O)c2nn(-c3ccnc(OC)c3)nc2n1CC(=O)Nc1ccc(C(F)(F)F)cc1Cl [Compound I-120, N-[2-chloro-4-(trifluoromethyl)phenyl]-2-{6-[(1S,6S)-5-(2,3-dihydro-1-benzofuran-7-carbonyl)-2,5-diazabicyclo[4.2.0]octan-2-yl]-5-ethyl-2-(2-methoxypyridin-4-yl)-7-oxo-2H,4H,7H-[1,2,3]triazolo[4,5-b]pyridin-4-yl}acetamide]	5 to 50 nM	500 to 2000 nM	–
CCc1c(N2CCN(C(=O)c3ncnc(C)c3O)[C@H]3CC[C@@H]32)c(=O)c2nn(-c3cnn(C4CC4)c3)nc2n1CC(=O)NC12CC(C(C)C)(C1)C2 [Compound I-25, 2-(2-(1-cyclopropyl-1H-pyrazol-4-yl)-5-ethyl-6-((1S,6S)-5-(5-hydroxy-6-methylpyrimidine-4-carbonyl)-2,5-diazabicyclo[4.2.0]octan-2-yl)-7-oxo-2,7-dihydro-4H-[1,2,3]triazolo[4,5-b]pyridin-4-yl)-N-(3-isopropylbicyclo[1.1.1]pentan-1-yl)acetamide]	5 to 50 nM	≤ 500 nM	–
CCc1c(N2CCN(C(=O)c3c(OC)ncc(C)c3O)[C@H]3CC[C@@H]32)c(=O)c2nn(C3=CCOCC3)nc2n1CC(=O)NC12CC(C(C)C)(C1)C2 [Compound I-92, 2-[2-(3,6-dihydro-2H-pyran-4-yl)-5-ethyl-6-[(1S,6S)-5-(4-hydroxy-2-methoxy-5-methylpyridine-3-carbonyl)-2,5-diazabicyclo[4.2.0]octan-2-yl]-7-oxo-2H,4H,7H-[1,2,3]triazolo[4,5-b]pyridin-4-yl]-N-[3-(propan-2-yl)bicyclo[1.1.1]pentan-1-yl]acetamide]	5 to 50 nM	–	≤ 500 nM
CCc1c(N2CCN(C(=O)c3ncnc(C)c3O)[C@H]3CC[C@@H]32)c(=O)c2nn(C3=CCO[C@H](C)C3)nc2n1CC(=O)NC12CC(C3CC3)(C1)C2 (single isomer, unassigned) [Compound I-181]	5 to 50 nM	–	≤ 500 nM
CCc1c(N2CCN(C(=O)c3ncnc(C)c3O)CC2)c(=O)c2nn(-c3ccn(C4CC4)n3)nc2n1CC(=O)Nc1ccc(C(F)(F)F)cc1Cl [Compound I-8, N-(2-chloro-4-(trifluoromethyl)phenyl)-2-(2-(1-cyclopropyl-1H-pyrazol-3-yl)-5-ethyl-6-(4-(5-hydroxy-6-methylpyrimidine-4-carbonyl)piperazin-1-yl)-7-oxo-2,7-dihydro-4H-[1,2,3]triazolo[4,5-b]pyridin-4-yl)acetamide]	≤ 5 nM	≤ 500 nM	–
CCc1c(N2CCN(C(=O)c3ccc4cccnc4c3O)[C@H]3CC[C@@H]32)c(=O)c2nn(C3=CCOCC3)nc2n1CC(=O)NC12CC(C(C)C)(C1)C2 [Compound I-159, 2-[2-(3,6-dihydro-2H-pyran-4-yl)-5-ethyl-6-[(1S,6S)-5-(8-hydroxyquinoline-7-carbonyl)-2,5-diazabicyclo[4.2.0]octan-2-yl]-7-oxo-2H,4H,7H-[1,2,3]triazolo[4,5-b]pyridin-4-yl]-N-[3-(propan-2-yl)bicyclo[1.1.1]pentan-1-yl]acetamide]	5 to 50 nM	500 to 2000 nM	–
CCc1c(N2CCN(C(=O)c3ncnc(C)c3O)[C@H]3CC[C@@H]32)c(=O)c2nn(-c3ccnc(OC)c3)nc2n1CC(=O)NC1CC2(CCC2)C1OC (stereo partly drawn) [Compound I-71, 2-{5-ethyl-6-[(1S,6S)-5-(5-hydroxy-6-methylpyrimidine-4-carbonyl)-2,5-diazabicyclo[4.2.0]octan-2-yl]-2-(2-methoxypyridin-4-yl)-7-oxo-2H,4H,7H-[1,2,3]triazolo[4,5-b]pyridin-4-yl}-N-{1-methoxyspiro[3.3]heptan-2-yl}acetamide]	100 to 500 nM	> 5000 nM	–

Results, then the molecule that gave them:

IC50 [1]	EC50 ([2]; Homo sapiens)	EC50 [2]	Compound
≤ 5 nM	≤ 500 nM	–	CCc1c(N2CCN(C(=O)c3ncc4c(c3O)OCC4)CC2)c(=O)c2nn(C3=CCOCC3)nc2n1CC(=O)Nc1ccc(C(F)(F)F)cc1Cl [Compound I-109, N-[2-chloro-4-(trifluoromethyl)phenyl]-2-[2-(3,6-dihydro-2H-pyran-4-yl)-5-ethyl-6-(4-{7-hydroxy-2H,3H-furo[3,2-c]pyridine-6-carbonyl}piperazin-1-yl)-7-oxo-2H,4H,7H-[1,2,3]triazolo[4,5-b]pyridin-4-yl]acetamide]
5 to 50 nM	500 to 2000 nM	–	CCc1c(N2CCN(C(=O)c3ncnc(C)c3O)CC2)c(=O)c2nn(-c3ccnc(OC)c3)nc2n1CC(=O)NC1CC2(CCC2)C1 [Compound I-118, 2-{5-ethyl-6-[4-(5-hydroxy-6-methylpyrimidine-4-carbonyl)piperazin-1-yl]-2-(2-methoxypyridin-4-yl)-7-oxo-2H,4H,7H-[1,2,3]triazolo[4,5-b]pyridin-4-yl}-N-{spiro[3.3]heptan-2-yl}acetamide]
5 to 50 nM	> 5000 nM	–	CCc1c(N2CCN(C(=O)c3cccc4ccoc34)[C@H]3CC[C@@H]32)c(=O)c2nn(-c3ccnc(OC)c3)nc2n1CC(=O)Nc1ccc(C(F)(F)F)cc1Cl [Compound I-119, 2-{6-[(1S,6S)-5-(1-benzofuran-7-carbonyl)-2,5-diazabicyclo[4.2.0]octan-2-yl]-5-ethyl-2-(2-methoxypyridin-4-yl)-7-oxo-2H,4H,7H-[1,2,3]triazolo[4,5-b]pyridin-4-yl}-N-[2-chloro-4-(trifluoromethyl)phenyl]acetamide]
5 to 50 nM	≤ 500 nM	–	CCc1c(C2=CCN(C(=O)c3ncnc(C)c3O)CC2(C)C)c(=O)n2nc(C3=CCOCC3)nc2n1CC(=O)Nc1ccc(C(F)(F)F)cc1Cl [Compound I-174, N-[2-chloro-4-(trifluoromethyl)phenyl]-2-[2-(3,6-dihydro-2H-pyran-4-yl)-5-ethyl-6-[1-(5-hydroxy-6-methylpyrimidine-4-carbonyl)-3,3-dimethyl-1,2,3,6-tetrahydropyridin-4-yl]-7-oxo-4H,7H-[1,2,4]triazolo[1,5-a]pyrimidin-4-yl]acetamide]
≤ 5 nM	≤ 500 nM	–	CCc1c(N2CCN(C(=O)c3ncnc(C)c3O)[C@H]3CC[C@@H]32)c(=O)c2nn([C@@H]3CC3(F)F)nc2n1CC(=O)Nc1ccc(C(F)(F)F)cc1Cl (single isomer, unassigned) [Compound I-215]
5 to 50 nM	≤ 500 nM	–	CCc1c(N2CCN(C(=O)c3ncnc(C)c3O)[C@H]3CC[C@@H]32)c(=O)c2nn(-c3ccnc(OC)c3)nc2n1CC(=O)NC1(C)CC2(CCC2)C1 [Compound I-87, 2-{5-ethyl-6-[(1S,6S)-5-(5-hydroxy-6-methylpyrimidine-4-carbonyl)-2,5-diazabicyclo[4.2.0]octan-2-yl]-2-(2-methoxypyridin-4-yl)-7-oxo-2H,4H,7H-[1,2,3]triazolo[4,5-b]pyridin-4-yl}-N-{2-methylspiro[3.3]heptan-2-yl}acetamide]
≤ 5 nM	≤ 500 nM	–	CCc1c(N2CCN(C(=O)c3c(OC)ncc(C)c3O)[C@H]3CC[C@@H]32)c(=O)c2nn(-c3ccnc(OC)c3)nc2n1CC(=O)Nc1ccc(C(F)(F)F)cc1F [Compound I-102, 2-{5-ethyl-6-[(1S,6S)-5-(4-hydroxy-2-methoxy-5-methylpyridine-3-carbonyl)-2,5-diazabicyclo[4.2.0]octan-2-yl]-2-(2-methoxypyridin-4-yl)-7-oxo-2H,4H,7H-[1,2,3]triazolo[4,5-b]pyridin-4-yl}-N-[2-fluoro-4-(trifluoromethyl)phenyl]acetamide]
≤ 5 nM	≤ 500 nM	–	CCc1c(N2CCN(C(=O)c3ncnc(C)c3O)CC2)c(=O)c2nn(-c3ccnc(OC)c3)nc2n1CC(=O)Nc1ccc(C(F)(F)F)cc1Cl [Compound I-149, N-[2-chloro-4-(trifluoromethyl)phenyl]-2-{5-ethyl-6-[4-(5-hydroxy-6-methylpyrimidine-4-carbonyl)piperazin-1-yl]-2-(2-methoxypyridin-4-yl)-7-oxo-2H,4H,7H-[1,2,3]triazolo[4,5-b]pyridin-4-yl}acetamide]
